In series [1] the test system is Mus musculus. Put plainly: Toxicity in NOD/SCID mouse xenografted with human MV4-11 cells assessed as death at 50 mg/kg, iv q2d for 12 days. It is filed as organism-based. The following applies: in vivo, 288 h. (In xenograft studies the graft and the host belong to different species.)
Series [2] concerns the target T1, Protein deacetylase HDAC6 (Homo sapiens) (UniProt Q9UBN7).
T1 sequence (whole entry): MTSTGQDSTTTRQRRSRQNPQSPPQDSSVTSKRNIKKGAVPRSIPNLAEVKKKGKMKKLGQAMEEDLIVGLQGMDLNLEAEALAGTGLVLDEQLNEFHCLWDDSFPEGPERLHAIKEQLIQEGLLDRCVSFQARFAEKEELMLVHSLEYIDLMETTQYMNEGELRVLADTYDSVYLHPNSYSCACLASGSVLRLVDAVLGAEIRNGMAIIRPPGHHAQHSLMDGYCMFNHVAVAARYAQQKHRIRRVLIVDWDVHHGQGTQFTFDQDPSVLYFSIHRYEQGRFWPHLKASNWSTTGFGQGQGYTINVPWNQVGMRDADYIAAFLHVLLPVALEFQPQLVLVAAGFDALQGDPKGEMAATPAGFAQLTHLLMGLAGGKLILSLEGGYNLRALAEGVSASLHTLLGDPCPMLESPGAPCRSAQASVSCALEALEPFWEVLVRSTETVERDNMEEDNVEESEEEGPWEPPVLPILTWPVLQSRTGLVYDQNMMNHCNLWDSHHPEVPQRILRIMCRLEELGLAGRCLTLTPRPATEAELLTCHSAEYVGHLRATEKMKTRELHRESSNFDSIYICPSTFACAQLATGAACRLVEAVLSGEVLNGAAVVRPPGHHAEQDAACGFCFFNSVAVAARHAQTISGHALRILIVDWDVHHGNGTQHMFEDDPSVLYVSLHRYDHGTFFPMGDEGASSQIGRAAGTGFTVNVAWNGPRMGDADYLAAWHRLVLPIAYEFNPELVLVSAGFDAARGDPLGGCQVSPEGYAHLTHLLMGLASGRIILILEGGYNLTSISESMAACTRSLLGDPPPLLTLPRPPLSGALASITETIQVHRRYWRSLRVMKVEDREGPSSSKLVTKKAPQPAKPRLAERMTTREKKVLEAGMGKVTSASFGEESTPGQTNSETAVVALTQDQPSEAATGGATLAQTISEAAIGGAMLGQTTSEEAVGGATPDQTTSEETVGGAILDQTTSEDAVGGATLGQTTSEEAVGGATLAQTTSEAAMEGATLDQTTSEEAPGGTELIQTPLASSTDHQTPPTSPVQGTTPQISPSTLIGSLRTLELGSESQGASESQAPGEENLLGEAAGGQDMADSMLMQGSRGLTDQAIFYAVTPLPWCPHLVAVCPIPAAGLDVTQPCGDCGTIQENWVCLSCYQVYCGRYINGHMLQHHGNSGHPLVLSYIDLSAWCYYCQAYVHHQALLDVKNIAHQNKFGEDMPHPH
Put plainly: Inhibition of HDAC6 in human MV4-11 cells assessed as upregulation of alpha- tubulin acetylation after 6 hrs by Western blot analysis. It is filed as cell-based.

The target in series [3] is T1, Protein deacetylase HDAC6 (Homo sapiens). Put plainly: Inhibition of HDAC6 in human HCT116 cells assessed as upregulation of alpha- tubulin acetylation after 6 hrs by Western blot analysis. The series is classed as cell-based. The following applies: HCT-116.
Series [4] deals with HeLa. Put plainly: Induction of histone H3 acetylation in human HeLa cells incubated for 6 hrs by cytoblot assay. The series is classed as functional, cell-based.
Series [5] deals with HeLa. Put plainly: Antiproliferative activity against human HeLa cells after 72 hrs by MTT assay. The series is classed as functional, cell-based. (In general: Tetrazolium assays rely on reduction of a dye to a coloured formazan, in cell work by metabolically active cells.)
In series [6] the target is Histone deacetylase 4 (Homo sapiens, UniProt P56524). Kind of series: Inhibition of recombinant HDAC4 (unknown origin) using AMC labeled AC-peptide as substrate incubated for 1 hr by fluorescence analysis.
Sequence of Histone deacetylase 4 (P56524 whole entry): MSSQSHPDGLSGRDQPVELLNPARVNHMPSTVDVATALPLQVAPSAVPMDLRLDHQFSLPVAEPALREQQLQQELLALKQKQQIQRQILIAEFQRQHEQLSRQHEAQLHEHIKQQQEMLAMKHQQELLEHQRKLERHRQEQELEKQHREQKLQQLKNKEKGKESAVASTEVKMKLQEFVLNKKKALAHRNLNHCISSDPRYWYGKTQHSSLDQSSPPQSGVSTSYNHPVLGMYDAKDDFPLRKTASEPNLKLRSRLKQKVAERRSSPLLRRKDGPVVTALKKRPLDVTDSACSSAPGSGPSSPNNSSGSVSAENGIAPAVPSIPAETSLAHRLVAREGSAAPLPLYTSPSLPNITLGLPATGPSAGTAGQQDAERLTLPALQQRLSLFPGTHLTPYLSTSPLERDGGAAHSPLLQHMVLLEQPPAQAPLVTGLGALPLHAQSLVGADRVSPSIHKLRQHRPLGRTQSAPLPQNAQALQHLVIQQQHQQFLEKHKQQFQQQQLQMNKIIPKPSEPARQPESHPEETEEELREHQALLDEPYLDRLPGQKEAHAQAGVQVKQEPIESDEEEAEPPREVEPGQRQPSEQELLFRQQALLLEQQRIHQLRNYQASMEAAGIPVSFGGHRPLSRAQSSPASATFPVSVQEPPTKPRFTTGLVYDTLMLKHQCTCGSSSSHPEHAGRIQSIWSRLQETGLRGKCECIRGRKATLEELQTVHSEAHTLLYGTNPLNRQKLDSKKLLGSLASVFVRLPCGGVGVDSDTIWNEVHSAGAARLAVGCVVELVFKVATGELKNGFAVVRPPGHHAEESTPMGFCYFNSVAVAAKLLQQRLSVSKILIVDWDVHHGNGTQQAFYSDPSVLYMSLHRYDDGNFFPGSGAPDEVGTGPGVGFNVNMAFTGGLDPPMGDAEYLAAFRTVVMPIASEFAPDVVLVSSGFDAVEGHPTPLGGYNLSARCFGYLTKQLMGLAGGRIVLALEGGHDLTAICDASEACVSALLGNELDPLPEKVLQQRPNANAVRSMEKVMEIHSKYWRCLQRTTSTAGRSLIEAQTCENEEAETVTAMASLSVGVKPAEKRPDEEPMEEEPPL
The target of series [7] is Histone deacetylase 9 (Homo sapiens, UniProt Q9UKV0). Kind of series: Inhibition of recombinant HDAC9 (unknown origin) using AMC labeled AC-peptide as substrate at 10 uM incubated for 1 hr by fluorescence analysis.
Sequence of Histone deacetylase 9 (Q9UKV0 whole entry): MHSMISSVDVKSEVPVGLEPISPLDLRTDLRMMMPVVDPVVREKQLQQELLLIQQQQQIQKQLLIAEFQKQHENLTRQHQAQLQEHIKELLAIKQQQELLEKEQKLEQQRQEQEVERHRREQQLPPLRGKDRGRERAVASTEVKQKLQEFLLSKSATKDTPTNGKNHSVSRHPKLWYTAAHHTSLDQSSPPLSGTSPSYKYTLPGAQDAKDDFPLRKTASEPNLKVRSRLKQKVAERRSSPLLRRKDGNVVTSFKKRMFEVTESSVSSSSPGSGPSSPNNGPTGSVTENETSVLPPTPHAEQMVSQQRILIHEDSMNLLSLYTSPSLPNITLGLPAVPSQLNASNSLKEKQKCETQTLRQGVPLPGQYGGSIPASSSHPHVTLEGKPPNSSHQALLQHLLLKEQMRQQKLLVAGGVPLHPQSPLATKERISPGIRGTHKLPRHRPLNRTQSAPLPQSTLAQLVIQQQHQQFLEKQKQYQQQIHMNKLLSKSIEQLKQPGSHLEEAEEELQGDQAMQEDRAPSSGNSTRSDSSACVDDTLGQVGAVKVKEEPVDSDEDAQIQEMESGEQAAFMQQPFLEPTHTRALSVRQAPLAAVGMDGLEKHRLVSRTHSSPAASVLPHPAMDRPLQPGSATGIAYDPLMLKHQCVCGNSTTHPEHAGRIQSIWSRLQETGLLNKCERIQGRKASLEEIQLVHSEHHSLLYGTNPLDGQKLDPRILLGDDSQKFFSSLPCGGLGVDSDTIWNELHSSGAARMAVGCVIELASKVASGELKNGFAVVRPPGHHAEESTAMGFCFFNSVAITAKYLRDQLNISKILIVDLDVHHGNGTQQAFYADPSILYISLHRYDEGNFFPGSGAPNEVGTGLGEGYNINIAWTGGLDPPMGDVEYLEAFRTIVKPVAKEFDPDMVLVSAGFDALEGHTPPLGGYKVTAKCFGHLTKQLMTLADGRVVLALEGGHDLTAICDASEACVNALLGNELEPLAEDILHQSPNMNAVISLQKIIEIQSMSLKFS
Series [8] in a line: Cytotoxicity against human U266 cells after 72 hrs by MTT assay. It is filed as functional, cell-based. The following applies: U-266, 72 h.
Series [9] in a line: Cytotoxicity against human RPMI8226 cells after 72 hrs by MTT assay. It is filed as functional, cell-based. The following applies: RPMI-8226, 72 h.
In series [10] the test system is K562. Put plainly: Cytotoxicity against human K562 cells after 72 hrs by MTT assay. The following applies: K562, 72 h. The series is classed as functional, cell-based.
Series [11] is described as follows: Cytotoxicity against human SKBR3 cells after 72 hrs by MTT assay. It is filed as functional, cell-based. The following applies: SK-BR-3, 72 h.
In series [12] the test system is HepG2. Put plainly: Cytotoxicity against human HepG2 cells after 72 hrs by MTT assay. The series is classed as functional, cell-based. Particulars: HepG2, 72 h.
Series [13] in a line: Volume of distribution at steady state in Sprague-Dawley rat at 12 mg/kg, iv administered by bolus injection measured up to 24 hrs by LC-MS/MS analysis. The following applies: in vivo, read-out: Vdss. The series is classed as ADME, organism-based.
The nature of series [14]: AUC (0 to infinity) in Sprague-Dawley rat at 12 mg/kg, iv administered by bolus injection measured up to 24 hrs by LC-MS/MS analysis. The series is classed as ADME, organism-based. Particulars: in vivo. On the set-up: dose 12 mg/kg, route intravenous, time infinity.
Series [15] has as its system MV4-11. Put plainly: Antitumor activity against human MV4-11 cells xenografted in NOD/SCID mouse assessed as tumor mass change at 50 mg/kg, iv q2d for 12 days. It is filed as functional.
Series [16] can be described thus: Antitumor activity against human HCT116 cells xenografted in Balb/c nude mouse assessed as tumor mass change at 25 mg/kg, po q2d for 8 days. The series is classed as functional, HCT-116.
Series [17] has as its system Ramos. Put plainly: Antitumor activity against human Ramos cells xenografted in NOD/SCID mouse assessed as tumor mass change at 40 mg/kg, po q2d for 6 days. The series is classed as functional.
Series [18] relates to Mus musculus. Kind of series: Toxicity in NOD/SCID mouse xenografted with human MV4-11 cells assessed as change in body weight at 50 mg/kg, iv q2d for 12 days. The following applies: in vivo, 288 h. It is filed as organism-based.
Series [19] concerns Mus musculus. Put plainly: Toxicity in Balb/c nude mouse xenografted with human HCT116 cells assessed as change in body weight at 25 mg/kg, po q2d for 8 days. It is filed as organism-based, HCT-116. Particulars: in vivo, 192 h.
Series [20] deals with Histone deacetylase 5 (Homo sapiens, UniProt Q9UQL6).
Sequence of Histone deacetylase 5 (Q9UQL6 whole entry): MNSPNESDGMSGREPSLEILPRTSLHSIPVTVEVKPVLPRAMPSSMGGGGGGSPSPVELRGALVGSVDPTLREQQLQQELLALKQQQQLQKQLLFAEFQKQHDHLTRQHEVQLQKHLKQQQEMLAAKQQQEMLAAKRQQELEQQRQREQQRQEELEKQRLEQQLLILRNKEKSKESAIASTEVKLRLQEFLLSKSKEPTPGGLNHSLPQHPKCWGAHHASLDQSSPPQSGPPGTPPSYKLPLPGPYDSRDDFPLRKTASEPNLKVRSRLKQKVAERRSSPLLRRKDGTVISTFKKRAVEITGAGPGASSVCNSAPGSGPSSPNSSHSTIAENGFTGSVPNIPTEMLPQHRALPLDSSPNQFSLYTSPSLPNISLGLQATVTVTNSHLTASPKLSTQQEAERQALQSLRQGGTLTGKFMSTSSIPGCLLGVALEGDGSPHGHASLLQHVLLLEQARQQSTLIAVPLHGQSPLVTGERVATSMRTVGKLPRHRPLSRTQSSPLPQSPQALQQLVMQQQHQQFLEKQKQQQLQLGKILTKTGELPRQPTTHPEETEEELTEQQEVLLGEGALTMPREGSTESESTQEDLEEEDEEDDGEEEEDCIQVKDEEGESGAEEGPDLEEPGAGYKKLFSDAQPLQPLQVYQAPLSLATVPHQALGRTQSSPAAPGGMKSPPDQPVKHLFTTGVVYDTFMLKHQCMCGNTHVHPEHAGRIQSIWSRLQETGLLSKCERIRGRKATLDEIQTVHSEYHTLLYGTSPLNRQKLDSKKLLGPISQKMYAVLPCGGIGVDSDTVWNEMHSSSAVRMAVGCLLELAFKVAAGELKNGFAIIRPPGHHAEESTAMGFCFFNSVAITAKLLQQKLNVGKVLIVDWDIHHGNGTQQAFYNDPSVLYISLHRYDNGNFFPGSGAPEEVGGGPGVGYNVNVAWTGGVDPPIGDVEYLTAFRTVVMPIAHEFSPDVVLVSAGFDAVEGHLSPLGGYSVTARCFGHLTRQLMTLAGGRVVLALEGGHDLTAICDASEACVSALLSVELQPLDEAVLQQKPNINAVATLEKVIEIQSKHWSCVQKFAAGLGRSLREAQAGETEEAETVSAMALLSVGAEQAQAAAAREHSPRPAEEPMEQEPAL
Description: Inhibition of recombinant HDAC5 (unknown origin) using AMC labeled AC-peptide as substrate incubated for 1 hr by fluorescence analysis
The target of series [21] is Histone deacetylase 1/2/3 (Homo sapiens) (UniProt Q13547+O15379+Q92769). The following applies: MV4-11, 1000 nM.
Description: Inhibition of HDAC1/2/3 in human MV4-11 cells assessed as upregulation of histone H3 acetylation at 1000 nM after 6 hrs by Western blot analysis

pEC50, pIC50: −log10 of the molar value. Calls of active or inactive are those of the source. The rule behind the calls is not given here.

What is called pEC50 is −log10 of the EC50, conventionally taken in molar units. A low value points to a large EC50. What is called pIC50 is the IC50 on a negative log10 scale, so that one unit is a factor of ten. Usually AUC(0-inf) stands for the area under the concentration-time curve extrapolated to infinity. As for `COc1ccc(N(C)c2nc(C)nc3ccccc23)cc1OCCCC(=O)NO`, the Activity entry in series [1] is given as “Non-toxic”; in series [15] it was 55%; in [16] it was 60.4%; in series [17], 22.5%; in [18], -3.8%; in series [19], -3.8%. For the same compound, the inhibition entry in series [2] and in series [3] was “Dose-dependent effect” throughout. In addition, the pEC50 in [4] is 5.76. For the same compound, the pIC50 in series [5] is 7.31; in [6] it was less than 5.00; in [8], 7.85; in [9] it was 7.82; in series [10], 7.20; in [11], 7.66. Besides, the pIC50 was 7.39 in series [12] and less than 5.00 in [20]. Also, the inhibition entry in [7] is “inactive”. The Vd in [13] worked out at 61.3 L/kg. Further, the AUC(0-inf) in series [14] was determined as 2430 ng·h/mL. In addition, the inhibition result in series [21] is “Active”.

Values taken from ChEMBL document CHEMBL3774354, “Discovery of Selective Histone Deacetylase 6 Inhibitors Using the Quinazoline as the Cap for the Treatment of Cancer” (J Med Chem, 2016).
